In assay [1] the test system is CD44hi H-2Db gp100 tetramer+ CD8+ T cells. As to the kind of experiment: Immunization with ABP-antigen constructs, tetramer staining of peripheral blood. The format is in vivo, C57BL6/J mice. The settings on record: for percentage CD44hi tetramer+ of total live CD8+ T cells: 5 nmol with 25 ug c-di-GMP adjuvant, prime day 0, boost day 14, peripheral blood day 21, mean response. The source says:
To test whether these albumin-binding peptides could enhance vaccination, a model melanoma antigen called gp100 was utilized. Vaccination against gp100 has shown significant preclinical activity (van Stipdonk, M. J. B. et al. Design of agonistic altered peptides for the robust induction of CTL directed towards H-2Db in complex with the melanoma-associated epitope gp100. Cancer research 69, 7784-7792, doi:10.1158/0008-5472.CAN-09-1724 (2009)) and has also been used clinically (Schwartzentruber, D. J. et al. gp100 Peptide Vaccine and Interleukin-2 in Patients with Advanced Melanoma. New England Journal of Medicine 364, 2119-2127, doi:10.1056/NEJMoa1012863 (2011)). An altered peptide ligand form of gp100 called EGP (sequence
To test the immunogenicity of ABP-modified peptides, C57BL6/J mice (Jackson Laboratories) were immunized with 5 nmol either ABP-G4S-EGP, ABP-PEG2000-EGP, or unmodified EGP peptide. Vaccines were formulated with 25 ug c-di-GMP (Invivogen) for adjuvant in 100 uL total volume (with sterile saline as diluent). Mice were primed on day 0, boosted on day 14, and tetramer staining was performed on day 21 to assess T cell priming in peripheral blood. (FIG. 5). Briefly, blood was isolated retro-orbitally, subjected to lysis to remove red blood cells, and incubated with tetramer (H-2Db gp100, MBL) at room temperature for 30 minutes, followed by surface staining for CD8 and CD44. DAPI was included as a viability marker, and cells were run on the LSR Fortessa (BD Biosciences). Responses were quantified as the percentage CD44^hi tetramer+ of total live CD8+ T cells. […] (FIG. 6).

The next assay deals with T1, MHC (H2-Db) (Mus musculus, UniProt P01899).
T1 sequence (P01899 25-362): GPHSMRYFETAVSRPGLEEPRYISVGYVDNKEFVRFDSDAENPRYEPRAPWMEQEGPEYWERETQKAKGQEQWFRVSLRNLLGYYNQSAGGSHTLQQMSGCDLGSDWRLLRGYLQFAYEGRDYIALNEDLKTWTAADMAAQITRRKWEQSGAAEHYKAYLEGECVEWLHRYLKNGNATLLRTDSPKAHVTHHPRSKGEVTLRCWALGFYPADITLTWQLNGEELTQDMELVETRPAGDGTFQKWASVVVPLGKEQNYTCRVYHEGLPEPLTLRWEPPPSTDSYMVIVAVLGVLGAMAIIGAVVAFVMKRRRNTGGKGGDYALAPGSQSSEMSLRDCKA
T1 sequence (P01887 21-119 partner): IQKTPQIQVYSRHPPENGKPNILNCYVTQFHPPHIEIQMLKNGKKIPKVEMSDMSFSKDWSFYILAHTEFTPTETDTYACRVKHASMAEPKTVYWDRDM
The settings on record: H2-Db epitope; van Stipdonk et al. 2009; cited from earlier work.

In the case of “AVGALEGPRNQDWLGVPRQL (Synthetic EGP long peptide) [unmodified EGP peptide, altered peptide ligand form of melanoma antigen gp100]”, the “percentage CD44hi tetramer+ of total live CD8+ T cells” value in assay [1] was determined as 1.45%. Also, the “response compared with background in unimmunized mice” value in assay [1] (day 21 tetramer staining, background 0.82%) is listed as “not statistically different from background”. Besides, the “affinity for MHC relative to native form (EGS)” value in the assay with MHC (H2-Db) is on record as “enhanced affinity for MHC over the native form”.
On to “DICLPRWGCLWGGGGSAVGALEGPRNQDWLGVPRQL [ABP-G4S-EGP]”, for which, in assay [1], the “percentage CD44hi tetramer+ of total live CD8+ T cells” value worked out at 5.56%. Also, the “fold higher response than unmodified peptide” value in assay [1] (CD44hi tetramer+ of live CD8+ T cells, day 21, relative to unmodified EGP peptide) was “approximately 4 fold”.

The record behind these values is patent US11077199B2, “Albumin binding peptide conjugates and methods thereof” (Massachusetts Institute of Technology, priority 2017, dated 2021).
